# Reference: US7173004B2, “Macrocyclic isoquinoline peptide inhibitors of hepatitis C virus” (Bristol-Myers Squibb Company, priority 2003, dated 2007)
# Key:
# Assay type in all cases: biochemical
# [1] = molecular target: T1, HCV NS3/4A protease complex, H77C strain (1a genotype) (Hepatitis C virus genotype 1a, UniProt P27958, C1454S); experiment: Recombinant HCV NS3/4A protease complex FRET peptide assay, H77C strain
# T1 construct: DNA encoding the recombinant HCV NS3/4A protease complex (amino acids 1027 to 1711) for these strains; His tag (inferred from Ni-NTA purification and pET21b vector); made in house; host or cells: Escherichia coli BL21 (DE3)
# Text: (§1) Recombinant HCV NS3/4A Protease Complex FRET Peptide Assay
# (§2) The purpose of this in vitro assay was to measure the inhibition of HCV NS3 protease complexes, derived from the BMS strain, H77C strain or J416S strain, as described below, by compounds of the present invention. This assay provides an indication of how effective compounds of the present invention would be in inhibiting HCV proteolytic activity.
# (§3) Serum from an HCV-infected patient was obtained from Dr. T. Wright, San Francisco Hospital. An engineered full-length cDNA (compliment deoxyribonucleic acid) template of the HCV genome (BMS strain) was constructed from DNA fragments obtained by reverse transcription-PCR (RT-PCR) of serum RNA (ribonucleic acid) and using primers selected on the basis of homology between other genotype 1a strains. From the determination of the entire genome sequence, a genotype 1a was assigned to the HCV isolate according to the classification of Simmonds et al. (See P Simmonds, K A Rose, S Graham, S W Chan, F McOmish, B C Dow, E A Follett, P L Yap and H Marsden, J. Clin. Microbiol., 31(6), 1493–1503 (1993)). […]
# [2] = tested on: human pancreatic chymotrypsin; experiment: Specificity assay, chymotrypsin; conditions: read-out: Chymotrypsin activity in the specificity assays (IC50)
# Experimental: The specificities of compounds of the present invention were determined against a variety of serine proteases: human neutrophil elastase (HNE), porcine pancreatic elastase (PPE) and human pancreatic chymotrypsin and one cysteine protease: human liver cathepsin B. In all cases a 96-well plate format protocol using calorimetric p-nitroaniline (pNA) substrate specific for each enzyme was used as described previously (PCT Patent Application No. WO 00/09543) with some modifications to the serine protease assays. All enzymes were purchased from Sigma while the substrates were from Bachem.
# Each assay included a 2 hr enzyme-inhibitor pre-incubation at room temperature followed by addition of substrate and hydrolysis to ˜30% conversion as measured on a Spectramax Pro microplate reader. Compound concentrations varied from 100 to 0.4 micromolar (“μM”) depending on their potency. […]
# The percentage of inhibition was calculated using the formula: [1−((UVinh−UVblank)/(UVctl−UVblank))]×100 […]
# [3] = molecular target: T2, HCV NS3/4A protease complex, J4L6S strain (1b genotype) (Hepatitis C virus genotype 1b, UniProt O92972, C1454S/C1711G); experiment: Recombinant HCV NS3/4A protease complex FRET peptide assay, J4L6S strain
# T2 construct: DNA encoding the recombinant HCV NS3/4A protease complex (amino acids 1027 to 1711) for these strains; His tag (inferred from Ni-NTA purification and pET21b vector); made in house; host or cells: Escherichia coli BL21 (DE3)
# Text: as §1, §2, §3
# T2 sequence (O92972 1027-1711 C1454S/C1711G, one chain of several): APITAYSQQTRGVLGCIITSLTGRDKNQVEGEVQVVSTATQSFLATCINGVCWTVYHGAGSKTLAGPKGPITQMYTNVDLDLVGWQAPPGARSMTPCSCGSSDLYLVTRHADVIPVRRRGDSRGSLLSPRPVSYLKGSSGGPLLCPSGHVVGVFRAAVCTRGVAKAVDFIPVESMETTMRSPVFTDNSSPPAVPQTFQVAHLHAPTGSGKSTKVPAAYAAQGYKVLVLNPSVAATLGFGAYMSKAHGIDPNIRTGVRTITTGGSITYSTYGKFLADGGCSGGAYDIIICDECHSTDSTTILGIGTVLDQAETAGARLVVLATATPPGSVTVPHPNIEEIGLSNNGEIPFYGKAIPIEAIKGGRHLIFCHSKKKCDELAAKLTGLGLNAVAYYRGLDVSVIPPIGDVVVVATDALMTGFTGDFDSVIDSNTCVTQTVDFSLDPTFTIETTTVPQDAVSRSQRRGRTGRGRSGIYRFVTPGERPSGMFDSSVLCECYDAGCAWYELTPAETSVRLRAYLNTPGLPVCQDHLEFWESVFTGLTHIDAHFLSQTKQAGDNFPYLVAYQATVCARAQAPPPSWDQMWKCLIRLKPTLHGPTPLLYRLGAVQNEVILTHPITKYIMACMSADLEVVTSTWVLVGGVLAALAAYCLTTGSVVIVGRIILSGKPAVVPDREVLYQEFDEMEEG
# T1 sequence (P27958 1027-1657 C1454S): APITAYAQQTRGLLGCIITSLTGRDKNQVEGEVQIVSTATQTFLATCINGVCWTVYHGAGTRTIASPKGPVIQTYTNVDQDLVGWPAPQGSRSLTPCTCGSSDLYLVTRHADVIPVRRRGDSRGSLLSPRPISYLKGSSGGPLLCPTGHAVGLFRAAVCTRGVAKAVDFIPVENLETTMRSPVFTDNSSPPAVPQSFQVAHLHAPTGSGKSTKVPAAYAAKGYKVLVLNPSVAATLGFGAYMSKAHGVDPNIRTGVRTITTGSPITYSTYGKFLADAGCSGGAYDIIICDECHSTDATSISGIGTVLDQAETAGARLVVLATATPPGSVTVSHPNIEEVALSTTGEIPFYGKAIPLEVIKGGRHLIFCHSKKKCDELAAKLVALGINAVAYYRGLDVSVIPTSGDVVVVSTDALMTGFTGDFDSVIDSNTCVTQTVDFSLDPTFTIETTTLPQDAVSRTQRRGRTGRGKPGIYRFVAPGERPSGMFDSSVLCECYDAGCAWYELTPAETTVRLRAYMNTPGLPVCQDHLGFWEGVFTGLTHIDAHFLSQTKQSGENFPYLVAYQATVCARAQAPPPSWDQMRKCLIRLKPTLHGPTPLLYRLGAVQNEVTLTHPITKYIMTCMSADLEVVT
# T1 sequence (P27958 1658-1714 partner, looked up, stated change not applied): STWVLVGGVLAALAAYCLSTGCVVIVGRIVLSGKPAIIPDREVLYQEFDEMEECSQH
structure (smiles),measurement,setting,value
"CC(C)(C)OC(=O)N[C@H]1CCCCC/C=C\[C@@H]2C[C@@]2(C(=O)NS(C)(=O)=O)NC(=O)[C@@H]2C[C@@H](Oc3nccc4ccccc34)CN2C1=O [Compound 2, [18-(Isoquinolin-1-yloxy)-4-methanesulfonylaminocarbonyl-2,15-dioxo-3,16-diaza-tricyclo[14.3.0.0^4,6]nonadec-7-en-14-yl]-carbamic acid tert-butyl ester]",IC50,[1],4.2 nM
same,IC50,[2],> 100000 nM
same,IC50,[3],1.9 nM
